Experimental data from patent EP0859230A1, “Detection of analytes using electrochemistry” (priority 1997, dated 1998).

Experiments:
[1] = tested on: PBP (penicillin binding protein); test: Competitive inhibition assay: penicillin vs 7-ACA-GOD on PBP-coated nitrocellulose strips, amperometric detection in flow cell; details: CV in percent in brackets; for Velocity (nA sec^1) Mean: over 200 sec; for Absolute response (µA) Mean (CV): over 500 sec
Protocol: Strips of nitrocellulose membrane were cut to the exact size of 0.4 x 0.9 cm. Strips were soaked in a solution of 5 mg/ml PBP (penicillin binding protein) in buffer (0.1M phosphate buffered saline (PBS), pH 7.4). The strips were left to soak for 1 hour at ambient temperature.
After incubation, strips were blocked in a 2% w/v bovine serum albumin (BSA) solution in PBS buffer (pH 7.4) for 1 hour at ambient temperature.
Individual strips were removed from the blocking solution and incubated for 5 minutes at 64°C in a 1:2000 dilution of 7-ACA-GOD stock solution in whole milk with or without free analyte (penicillin G) present.
Strips were washed for 20 seconds in PBS and placed onto the working electrode of the screen-printed sensor card.
The card was mounted into the flow cell or flowing liquid system and a 0.1M PBS solution was introduced, pumped at a constant rate through the flow cell. The working electrode was poised at a potential of +350 mV and the system allowed to achieve electrochemical equilibrium. A 0.1M glucose solution in 0.1M PBS/0.1M KCl was then pumped into the system. The flow was halted after 60 seconds. The electrochemical response of the system was monitored throughout this period.
Results can be expressed as total current increase in µA over a given time interval or can be interpreted as current increase per unit time (µA/sec).
Nitro-cellulose strips were prepared in two separate batches. […] Responses are also recorded as 'velocities' whereby the maximum current versus time slope is measured during the period of glucose flow across the working electrode surface (expressed as nA/sec). Results are also expressed as a percentage of the signal of the zero ppb penicillin positive control, that is, the zero inhibited response that therefore yields a 100% response value.

[2] = tested on: monoclonal anti-gentamycin antibody; test: Competitive flow-cell electrochemical immunoassay: free gentamycin vs gentamycin-GOD conjugate in milk; format: binding
Protocol: Strips of nitrocellulose were cut to the exact size of 0.4 x 0.9 cm. Strips were soaked in a solution of 5 µg/ml of monoclonal anti-gentamycin antibody in PBS buffer pH 7.4, for 1 hour at ambient temperature.
After incubation, strips were blocked in a 2% w/v BSA solution in PBS(pH 7.4) for 1 hour at ambient temperature.
Individual strips were removed from the blocking solution and mounted onto the working electrode surface, thus creating a complete sensor card.
Sensor cards were mounted into the flow cell, the strip of nitrocellulose being held in place by a rubber seal, used to prevent leakage during operation of the flow cell device.
One ml samples of milk were aliquoted, to which were added 25 µl of a: 1:1000 (A), 1:2000 (B) or 1:2500 (C) dilution of gentamycin-GOD conjugate (prepared with state of the art procedures).
Free gentamycin was then added to each milk sample, yielding solutions having gentamycin concentrations varying between 0 and 1000 ppb.
A pumping device was connected to the flow cell and the prepared milk samples were each tested with a new sensor card mounted in place.
The flow rate through the system was adjusted so that the complete milk sample passed through the system over a 3 minute time period. A 1 minute wash step was then performed with 0.1 % w/v Tween in 0.1M PBS (pH 7.4). Immediately after each wash step, 0.5M glucose in 0.1M PBS/ 0.1M KCl was passed through the flow cell and the electrochemical responses generated were recorded both as absolute values and as initial response-time velocities in nA/sec.
A 1:10 dilution of the MoAb stock solution was used to coat the nitro-cellulose strips. Gentamycin-glucose oxidase conjugate concentrations were varied from 1:4000 (exp.A) to 1:8000 (exp.B) to 1:10 000 (exp. C).

[3] = tested on: Antigentamycin; test: End-point competitive microtiter plate assay with gentamycin-GOD, hydrogen peroxide peak measured in flow cell; format: binding; details: gentamycin concentrations as low as 5 ppb; 1:10 000 dilution of gentamycin-GOD conjugate
Protocol: The immunological reaction step is performed in a microtiter plate. Using GOD as the enzyme label, the final microtiter well solution will contain hydrogen peroxide, the amount of which is inversely proportional to the amount of free gentamycin present in the sample under uniform conditions (competitive assay approach). This solution is pumped through the flow cell yielding a current peak, the magnitude of which is directly proportional to the amount of hydrogen peroxide present. Since no enzyme label is present in the final solution, no further hydrogen peroxide generation occurs after removal of solution from the microtiter well, thus current peaks, as opposed to current steps are observed on liquid passage through the flow cell.
Microtiter plates were coated in carbonate/bicarbonate buffer pH 9.6 for 1 hour at 37°C, then washed and blocked with 0.5% w/v gelatin in PBS buffer pH 7.4. Plates were either used directly or stored at 4°C until required.
Primary incubations with gentamycin-GOD, with or without free gentamycin, and in milk or buffer (PBS pH 7.4) were performed for 1 hour at 37°C. Gentamycin-GOD concentrations were varied between 1:1000 and 1:20 000. […]
After a given time period for substrate conversion, 150 µl of solution was pumped through the flow cell using a peristaltic pump set at a constant flow rate of 300 µl/min. Responses were measured as peak heights in nA or mA. […]

[4] = Batch 1, penicillin 100 ppb in whole milk, n=2
[5] = Batch 2, penicillin 10 ppb in whole milk, n=3
[6] = Batch 2, penicillin 100 ppb in whole milk, n=2
[7] = Overall, penicillin 100 ppb in whole milk, n=4
[8] = Exp. A (conjugate 1:4000), gentamycin 10 ppb in milk, duplicate
[9] = Exp. A (conjugate 1:4000), gentamycin 100 ppb in milk, duplicate
[10] = Exp. A (conjugate 1:4000), gentamycin 1000 ppb in milk, duplicate
[11] = Exp. B (conjugate 1:8000), gentamycin 10 ppb in milk, duplicate
[12] = Exp. B (conjugate 1:8000), gentamycin 100 ppb in milk, duplicate
[13] = Exp. C (conjugate 1:10 000), gentamycin 10 ppb in milk, triplicate
[14] = Exp. C (conjugate 1:10 000), gentamycin 100 ppb in milk, triplicate

Molecule: CC1(C)S[C@@H]2[C@H](NC(=O)Cc3ccccc3)C(=O)N2[C@H]1C(=O)O [Penicillin, penicillin G]
- Velocity (nA sec^1) Mean [1, 4]: 0.209 (12.6) nA sec^1
- Absolute response (µA) Mean (CV) [1, 4]: 0.087 (35.8) µA
- Velocity (nA sec^1) Mean [1, 5]: 0.151 (32.0) nA sec^1
- Absolute response (µA) Mean (CV) [1, 5]: 0.064 (17.7) µA
- Velocity (nA sec^1) Mean [1, 6]: 0.062 (5.7) nA sec^1
- Absolute response (µA) Mean (CV) [1, 6]: 0.026 (21.8) µA
- Absolute response (µA) Mean (CV) ([1]; Overall (batch 1 + batch 2), penicillin 10 ppb in whole milk, n=3): 0.064 (17.7) µA
- Velocity (nA sec^1) Mean ([1]; Overall, penicillin 10 ppb in whole milk, n=3): 0.151 (32.0) nA sec^1
- Velocity (nA sec^1) Mean [1, 7]: 0.135 (64.9) nA sec^1
- Absolute response (µA) Mean (CV) [1, 7]: 0.057 (70.2) µA

Molecule: gentamycin
- Absolute response (µA) Mean value [2, 8]: 3217 µA
- Velocity (nA sec^1) Mean value [2, 8]: 36.0 nA sec^1
- Absolute response (µA) Mean value [2, 9]: 3050 µA
- Velocity (nA sec^1) Mean value [2, 9]: 22.7 nA sec^1
- Absolute response (µA) Mean value [2, 10]: 1350 µA
- Velocity (nA sec^1) Mean value [2, 10]: 8.7 nA sec^1
- Absolute response (µA) Mean value [2, 11]: 2438 µA
- Velocity (nA sec^1) Mean value [2, 11]: 18.0 nA sec^1
- Absolute response (µA) Mean value [2, 12]: 2025 µA
- Velocity (nA sec^1) Mean value [2, 12]: 14.3 nA sec^1
- Absolute response (µA) Mean value [2, 13]: 1868 µA
- Velocity (nA sec^1) Mean value [2, 13]: 10.8 nA sec^1
- Absolute response (µA) Mean value [2, 14]: 1333 µA
- Velocity (nA sec^1) Mean value [2, 14]: 6.0 nA sec^1
- inhibition of the positive signal [3]: Considerable inhibition
